Measured values: ChEMBL document CHEMBL1201862, “PubChem BioAssay data set” (2004)
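Briefly, cells in 96-well plates were exposed to five compound concentrations for 48 h, and endpoints were estimated by linear interpolation. Abbreviation: GI50, concentration required for 50% inhibition of growth.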 The source made the active and inactive calls. No stated cut-off is given here; in the data, active = GI50 up to about 1.1 µM and inactive = higher.

Experiments:
Assay in all cases: NCI tumour cell line growth inhibition, 48 h
[1] = test system: 786-0
[2] = test system: A498
[3] = test system: A549
[4] = test system: BT-549
[5] = test system: CAKI-1
[6] = test system: CCRF-CEM
[7] = test system: COLO 205
[8] = test system: DU-145
[9] = test system: EKVX
[10] = test system: HCC 2998
[11] = test system: HCT-116
[12] = test system: HCT-15
[13] = test system: HL-60
[14] = test system: HT-29
[15] = test system: Hs-578T
[16] = test system: IGROV-1
[17] = test system: K562
[18] = test system: KM12
[19] = test system: LOX IMVI
[20] = test system: M14
[21] = test system: MCF7
[22] = test system: MDA-MB-231
[23] = test system: MDA-MB-435
[24] = test system: MDA-N
[25] = test system: MOLT-4
[26] = test system: Malme-3M
[27] = test system: NCI-H226
[28] = test system: NCI-H23
[29] = test system: NCI-H460
[30] = test system: NCI-H522
[31] = test system: NCI/ADR-RES
[32] = test system: OVCAR-3
[33] = test system: OVCAR-4
[34] = test system: OVCAR-5
[35] = test system: OVCAR-8
[36] = test system: PC-3
[37] = test system: RPMI-8226
[38] = test system: RXF 393
[39] = test system: SF-268
[40] = test system: SF-539
[41] = test system: SK-MEL-28
[42] = test system: SK-MEL-2
[43] = test system: SK-MEL-5
[44] = test system: SK-OV-3
[45] = test system: SN12C
[46] = test system: SNB-19
[47] = test system: SNB-75
[48] = test system: SR
[49] = test system: SW-620
[50] = test system: T47D
[51] = test system: TK-10
[52] = test system: U-251
[53] = test system: UACC-257
[54] = test system: UACC-62
[55] = test system: UO-31

CSc1[nH]nc(N)c1C(=O)Nc1ccc(Cl)cc1
GI50 [1]: 52.1 µM (inactive)
GI50 [2]: 73.3 µM (inactive)
GI50 [3]: 48.4 µM (inactive)
GI50 [4]: 89.7 µM (inactive)
GI50 [5]: 46.2 µM (inactive)
GI50 [6]: 27 µM (inactive)
GI50 [7]: 99.5 µM (inactive)
GI50 [8]: 68.5 µM (inactive)
GI50 [9]: > 100 µM (inactive)
GI50 [10]: 99.8 µM (inactive)
GI50 [11]: 23.6 µM (inactive)
GI50 [12]: 46.2 µM
GI50 [13]: 34.8 µM (inactive)
GI50 [14]: 41.5 µM (inactive)
GI50 [15]: > 100 µM (inactive)
GI50 [16]: 98.9 µM (inactive)
GI50 [17]: 51.3 µM (inactive)
GI50 [18]: 55.6 µM (inactive)
GI50 [19]: 76.9 µM (inactive)
GI50 [20]: 68.9 µM (inactive)
GI50 [21]: 84.7 µM (inactive)
GI50 [22]: > 100 µM (inactive)
GI50 [23]: > 100 µM (inactive)
GI50 [24]: > 100 µM (inactive)
GI50 [25]: 51.6 µM (inactive)
GI50 [26]: 63.7 µM (inactive)
GI50 [27]: 25.6 µM (inactive)
GI50 [28]: 36.6 µM (inactive)
GI50 [29]: 79.4 µM (inactive)
GI50 [30]: 27 µM (inactive)
GI50 [31]: 35.2 µM (inactive)
GI50 [32]: > 100 µM (inactive)
GI50 [33]: 50.5 µM (inactive)
GI50 [34]: > 100 µM (inactive)
GI50 [35]: 40.9 µM (inactive)
GI50 [36]: 55.5 µM (inactive)
GI50 [37]: 37.7 µM (inactive)
GI50 [38]: 22.9 µM (inactive)
GI50 [39]: 79.6 µM (inactive)
GI50 [40]: 66.2 µM (inactive)
GI50 [41]: > 100 µM (inactive)
GI50 [42]: > 100 µM (inactive)
GI50 [43]: > 100 µM (inactive)
GI50 [44]: > 100 µM (inactive)
GI50 [45]: > 100 µM (inactive)
GI50 [46]: 66.5 µM (inactive)
GI50 [47]: 75.5 µM (inactive)
GI50 [48]: 35.3 µM (inactive)
GI50 [49]: 57.3 µM (inactive)
GI50 [50]: 58.1 µM (inactive)
GI50 [51]: 47.2 µM (inactive)
GI50 [52]: 92.3 µM (inactive)
GI50 [53]: > 100 µM (inactive)
GI50 [54]: 90.6 µM (inactive)
GI50 [55]: 33 µM (inactive)
